Among the data in patent US20130216553A1, “Compositions and Methods for Modulation and Detection of Immune and Inflammatory Responses” (priority 2010, published 2013) are IL-6 secretion values, retold here.

* marks the point of attachment. Palmitoyl = CCCCCCCCCCCCCCCC(=O)*

In assay [1] the test system is Bone marrow-derived DCs from TLR2^−/− mice. Description: Stimulation of bone marrow dendritic cells from TLR2^−/− mice (IL-6 ELISA, surface activation markers). The format is cell-based, mouse. As to conditions: TLR2^−/− BMDCs, plate-bound LPS (1 μg), MMP (10 μg) or PE DHC (2.5 μg), supernatants after 18 hrs. The protocol:
(§1) Bone marrow cells from C57BL/6 and TLR2^−/− mice were cultured at 2×10^5 cells/ml in RPMI containing 10% FCS, 2-ME, and 20 ng/ml recombinant murine GM-CSF for 9 days. Bone marrow DCs (BMDCs) were harvested at Day 9 and were greater than 80% CD11c+. LPS (1 μg), MMP (10 μg) (a bacterial lipoprotein and known TLR-2 ligand: Palmitoyl-Cys ((RS)-2,3-di(palmitoyloxy)-propyl)-Ser-Ser-Asn-Ala-OH(pam3-Cys-Ser-Ser Asn-Ala-OH) (Bachem H-9460), PE DHC (2.5 μg) or 70% EtOH, all in 20 ul volumes, were allowed to dry in the wells of a 24-well plate overnight prior to the addition of BMDCs. BMDCs were cultured in the ligand-bound 24-well plates at 1×10^6 cells/ml in RPMI containing GM-CSF. After 18 hrs, culture supernatants were harvested and tested for IL-6 via ELISA.
(§2) The effects of PE DHC on antigen presenting cell (APC) activation in vitro were examined. Dendritic cells (BMDCs) (>85% CD11c+) were derived from the bone marrow of WT or TLR2^−/− mice and cultured either alone or with EtOH, LPS, MMP (a TLR2 ligand), or PE DHC. After 18 Ins supernatants were assayed for IL-6. […] BMDCs were also assayed for expression of the surface activation markers B7.2 and MHC class II.

Assay [2] relates to Bone marrow-derived DCs from wild-type (WT) mice. Description: Stimulation of bone marrow dendritic cells from wild-type mice (IL-6 ELISA, surface activation markers). Format: cell-based, mouse. The note with it: WT BMDCs, plate-bound LPS (1 μg), MMP (10 μg) or PE DHC (2.5 μg), supernatants after 18 hrs. The protocol: as §1, §2

Regarding “Palmitoyl-Cys ((RS)-2,3-di(palmitoyloxy)-propyl)-Ser-Ser-Asn-Ala-OH ({Palmitoyl-Cys((RS)-2,3-di(palmitoyloxy)-propyl)}-SSNA-OH) [MMP, a bacterial lipoprotein and known TLR-2 ligand (Bachem H-9460)]”, the IL-6 secretion entry in assay [1] is “did not”; in assay [2], “resulted in IL-6 secretion”.
